According to patent publication US20230338347A1, “New Use of Inhibitors of the Notch Signalling Pathway” (Cellestia Biotech AG, priority 2020, published 2023):

Experiments:
Format in all cases: in vivo, human
[1] = system: Notch-activated relapsed and treatment refractory T-ALL; assay: Compassionate use in a NOTCH positive relapsed refractory T-ALL patient: clinical response; conditions: free base once daily 300 to 400 to 500 mg
Method: In a compassionate use program, a patient with Notch-activated relapsed and treatment refractory T-ALL was treated with 6-(4-Tert-Butylphenoxy)Pyridin-3-Amine (free base) once daily starting with 300 mg, increased to 400 mg, then 500 mg in addition to their ongoing anti-cancer treatment. Dose escalation was done every 3 days to reach the target dose 500 mg.

[2] = system: DTX-1 (Deltex E3 Ubiquitin Ligase 1); assay: Compassionate use T-ALL patient: DTX-1 gene expression by RTqPCR; conditions: at C2D15; time-dependent; target dose 500 mg once daily
Method: DTX-1 is a positive regulator of NOTCH signalling pathway (C1D01_pre: Cycle 1 Day 1 predose; C1D01_1 h: Cycle 1 Day 1 1 hour post dose; C1D21_1 h: Cycle 1 Day 21 1 hour post dose; C2D15_1 h: Cycle 2 Day 15 1 hour post dose).
Administration of 6-(4-Tert-Butylphenoxy)Pyridin-3-Amine induced a potent time-dependent downregulation of DTX-1 (Deltex E3 Ubiquitin Ligase 1) up to 95% at C2D15, indicative of NOTCH pathway downregulation. DTX-1 is a positive regulator of NOTCH signalling pathway
Blood samples for PBMCs and cytokine analysis were collected using BD Vacutainer® Evacuated Blood Collection Tubes, and immediately centrifuged to separate the cell and plasma compartments for further analysis. Gene expression profiling was performed by standard RTqPCR. Cytokine analysis in the plasma compartment was performed with a standard commercially available ELISA method.

[3] = Phase I/IIA study: pharmacokinetics after oral administration
Excerpt: This […] study is an ongoing first-in-human, open-label study investigating the safety, tolerability, pharmacokinetics (PK), pharmacodynamics (PD) and preliminary efficacy of the pan-NOTCH inhibitor 6-(4-Tert-Butylphenoxy)Pyridin-3-Amine in adult patients with locally advanced or metastatic solid tumours or hematologic malignancies.
The study is designed as an open label, non-randomised, uncontrolled […] dose escalation study with expansion cohorts of 6-(4-Tert-Butylphenoxy)Pyridin-3-Amine administered orally on a once-daily schedule, based on a 28-day treatment cycle. The dosing will be 15, 30, 60, 120, 170, 250, 400, or 600 mg of the 6-(4-Tert-Butylphenoxy)Pyridin-3-Amine monohydrochloride salt or higher per day or alternatively 20, 40, 60, 120, 170, 250, 400, or 600 mg of the 6-(4-Tert-Butylphenoxy)Pyridin-3-Amine monohydrochloride salt or higher per day. Dosing of 15, 30, 60, 120, 170, 250, 400, or 600 mg of the 6-(4-Tert-Butylphenoxy)Pyridin-3-Amine monohydrochloride salt corresponds to dosing of 13, 26, 52, 104, 148, 217, 348, or 522 mg of 6-(4-Tert-Butylphenoxy)Pyridin-3-Amine (free base). Dosing of 20, 40, 60, 120, 170, 250, 400, or 600 mg of the 6-(4-Tert-Butylphenoxy)Pyridin-3-Amine monohydrochloride salt corresponds to dosing of 17, 35, 52, 104, 148, 217, 348, or 522 mg of 6-(4-Tert-Butylphenoxy)Pyridin-3-Amine (free base). For this study, 6-(4-Tert-Butylphenoxy)Pyridin-3-Amine monohydrochloride salt was formulated into a capsule having a drug load of 5, 10, 20, 50 and 100 mg, respectively intended to be administered orally. • Patients will meet the following criteria:
6-(4-Tert-Butylphenoxy)Pyridin-3-Amine is rapidly absorbed after oral administration and reaches Cmax within 1 to 2 hours of dosing. […] The elimination half-life is approximately 20 hours and 6-(4-Tert-Butylphenoxy)Pyridin-3-Amine accumulates about 2-fold with repeated daily administration.

SMILES: CC(C)(C)c1ccc(Oc2ccc(N)cn2)cc1 [6-(4-Tert-Butylphenoxy)Pyridin-3-Amine]
- time to complete remission after starting dosing [1]: ≤ 1 week
- clinical response ([1]; added to ongoing anti-cancer treatment): complete remission
- downregulation of DTX-1 [2]: up to 95%
- time to steady state concentrations ([3]; daily dosing): within one week
- Tmax ([3]; human, plasma, after oral administration, read-out: time to reach Cmax): 1 to 2 h
- half-life ([3]; human, plasma, oral, read-out: elimination half-life (converted)): ~20 h
- accumulation with repeated daily administration ([3]; oral, daily): about 2 fold
- plasma exposure versus dose ([3]; oral, dose range tested): increases with increasing doses
- saturation of absorption ([3]; oral, dose range tested): no signs of saturated absorption
